Source: patent US20160378909A1, “PROCESS FOR IDENTIFYING CULTURE CONDITIONS FOR A CELL OR ORGANISM” (GLAXOSMITHKLINE BIOLOGICALS SA, priority 2013, published 2016)
Counter-ions that a name gives are not always drawn. Like-named read-outs stand apart in the source and are kept apart here.

Tested on: Bordetella pertussis
Assay: microbe, parasite or virus in culture
Assay type: cell-based
Settings: for Effect on growth rate in comparison to a minimally identified medium: no concentration stated
Description: Cells were harvested by centrifugation, washed twice with NaCl 0.9% (w/v), and resuspended in fresh medium (de novo minimal CDM; see composition in Table 1) at a theoretical OD650 nm of 0.5, as calculated from the OD650 nm of the culture before harvest. 20 μl of this cell suspension were used to inoculate each well of a 96-well microtiter plate filled with 180 μl of de novo minimal CDM. Only the inner wells of the plate were used for cultures, in order to minimize evaporation, and two controls were included, in which the supplement solution was replaced with water.
The plate was then incubated for 7 days at 35° C. in a Biotek Synergy H1 reader with constant shaking, and growth was automatically monitored every 10 minutes as OD650 nm.
The relative growth yield and growth rate for each supplement was then averaged over the three independent repeats, and the standard deviation was calculated.

[1] = Bordetella pertussis, 168 h, read-out: Relative yield Average, 2 mM in medium, max OD650 nm relative to water controls
[2] = Bordetella pertussis, read-out: Relative growth rate Average, 0.2 mg/L in medium, first generation, relative to water controls
[3] = Bordetella pertussis, 168 h, read-out: Relative yield Average, 20 mM in medium, max OD650 nm relative to water controls
[4] = Bordetella pertussis, read-out: Relative growth rate Average, 2 mM in medium, first generation, relative to water controls
[5] = Bordetella pertussis, read-out: Relative growth rate Average, 20 mM in medium, first generation, relative to water controls
[6] = Bordetella pertussis, 168 h, read-out: Relative yield Average, 0.1 mg/L in medium, max OD650 nm relative to water controls
[7] = Bordetella pertussis, 168 h, read-out: Relative yield Average, 1 mg/L in medium, max OD650 nm relative to water controls
[8] = Bordetella pertussis, read-out: Relative growth rate Average, 0.1 mg/L in medium, first generation, relative to water controls
[9] = Bordetella pertussis, read-out: Relative growth rate Average, 1 mg/L in medium, first generation, relative to water controls
[10] = 1.89 mg/L in medium, first generation, relative to water controls
[11] = 1.89 mg/L in medium, max OD650 nm relative to water controls
[12] = 18.9 mg/L in medium, first generation, relative to water controls
[13] = 18.9 mg/L in medium, max OD650 nm relative to water controls

Calcium pantothenate
Relative growth rate Average (1 mg/L in medium, first generation, relative to water controls): 102.18%
Relative yield Average (1 mg/L in medium, max OD650 nm relative to water controls): 106.59%
Relative growth rate Average (10 mg/L in medium, first generation, relative to water controls): 102.47%
Relative yield Average (10 mg/L in medium, max OD650 nm relative to water controls): 98.99%

O.O.[Na+].[Na+].[O]=[Mo](=[O])([O-])[O-] [Na2MoO4•2H2O]
Relative growth rate Average (0.94 mg/L in medium, first generation, relative to water controls): 86.76%
Relative yield Average (0.94 mg/L in medium, max OD650 nm relative to water controls): 101.96%
Relative growth rate Average (9.4 mg/L in medium, first generation, relative to water controls): 91.79%
Relative yield Average (9.4 mg/L in medium, max OD650 nm relative to water controls): 105.65%

O.O.[Ca+2].[Cl-].[Cl-] [CaCl2•2H2O]
Relative growth rate Average (0.3 mM in medium, first generation, relative to water controls): 107.49%
Relative yield Average (0.3 mM in medium, max OD650 nm relative to water controls): 104.03%
Relative growth rate Average (3 mM in medium, first generation, relative to water controls): 92.03%
Relative yield Average (3 mM in medium, max OD650 nm relative to water controls): 107.34%

O=C(O)CCC(=O)O [Succinic acid]
activity at 2000 µM [1]: < 95%

Cc1ncc(CO)c(CO)c1O [Pyridoxine]
activity at 0.2 µg/mL (Bordetella pertussis, 168 h, read-out: Relative yield Average, 0.2 mg/L in medium, max OD650 nm relative to water controls): 95 to 105%
activity at 2 µg/mL (Bordetella pertussis, 168 h, read-out: Relative yield Average, 2 mg/L in medium, max OD650 nm relative to water controls): 95 to 105%
activity at 0.2 µg/mL [2]: 95 to 105%
activity at 2 µg/mL (Bordetella pertussis, read-out: Relative growth rate Average, 2 mg/L in medium, first generation, relative to water controls): 95 to 105%

N[C@@H](Cc1c[nH]cn1)C(=O)O [L-Histidine]
activity at 2000 µM [1]: 95 to 105%
activity at 20000 µM [3]: < 95%
activity at 2000 µM [4]: > 105%
activity at 20000 µM [5]: > 105%

Nc1nc(=O)c2nc(CNc3ccc(C(=O)N[C@@H](CCC(=O)O)C(=O)O)cc3)cnc2[nH]1 [Folate]
activity at 0.12 µg/mL (Bordetella pertussis, 168 h, read-out: Relative yield Average, 0.12 mg/L in medium, max OD650 nm relative to water controls): > 105%
activity at 1.2 µg/mL (Bordetella pertussis, 168 h, read-out: Relative yield Average, 1.2 mg/L in medium, max OD650 nm relative to water controls): 95 to 105%
activity at 0.12 µg/mL (Bordetella pertussis, read-out: Relative growth rate Average, 0.12 mg/L in medium, first generation, relative to water controls): 95 to 105%
activity at 1.2 µg/mL (Bordetella pertussis, read-out: Relative growth rate Average, 1.2 mg/L in medium, first generation, relative to water controls): 95 to 105%

O=c1cc[nH]c(=O)[nH]1 [Uracil]
activity at 0.1 µg/mL [6]: 95 to 105%
activity at 1 µg/mL [7]: 101%
activity at 0.1 µg/mL [8]: 95 to 105%
activity at 1 µg/mL [9]: 94.8%

O.O.O.O.O.O.O.O=S(=O)([O-])[O-].[Zn+2] [ZnSO4•7H2O]
Relative growth rate Average [10]: 91.58%
Relative yield Average [11]: 191.76%
Relative growth rate Average [12]: 99.13%
Relative yield Average [13]: 163.55%

O=C(O)[C@@H]1CCCN1 [L-Proline]
activity at 2000 µM [1]: 95 to 105%
activity at 20000 µM [3]: > 105%

Cc1ncc(C[n+]2csc(CCO)c2C)c(N)n1 [Thiamine HCl]
activity at 1 µg/mL [7]: 95 to 105%
activity at 10 µg/mL (Bordetella pertussis, 168 h, read-out: Relative yield Average, 10 mg/L in medium, max OD650 nm relative to water controls): > 105%
activity at 1 µg/mL [9]: 95 to 105%
activity at 10 µg/mL (Bordetella pertussis, read-out: Relative growth rate Average, 10 mg/L in medium, first generation, relative to water controls): > 105%

C[C@@H](O)[C@H](N)C(=O)O [L-Threonine]
activity at 2000 µM [1]: 95 to 105%
activity at 20000 µM [3]: < 95%
activity at 2000 µM [4]: < 95%

O[C@H]1[C@H](O)[C@@H](O)[C@H](O)[C@@H](O)[C@H]1O [Inositol]
activity at 2.8 µg/mL (Bordetella pertussis, 168 h, read-out: Relative yield Average, 2.8 mg/L in medium, max OD650 nm relative to water controls): 95 to 105%
activity at 28 µg/mL (Bordetella pertussis, 168 h, read-out: Relative yield Average, 28 mg/L in medium, max OD650 nm relative to water controls): 95 to 105%
activity at 2.8 µg/mL (Bordetella pertussis, read-out: Relative growth rate Average, 2.8 mg/L in medium, first generation, relative to water controls): 95 to 105%
activity at 28 µg/mL (Bordetella pertussis, read-out: Relative growth rate Average, 28 mg/L in medium, first generation, relative to water controls): 95 to 105%

O.O=S(=O)([O-])[O-].[Mn+2] [MnSO4•H2O]
Relative growth rate Average [10]: 91.27%
Relative yield Average [11]: 109.53%
Relative growth rate Average [12]: 47.58%
Relative yield Average [13]: 91.55%

N[C@@H](CS)C(=O)O [L-Cysteine]
activity at 250 µM (Bordetella pertussis, 168 h, read-out: Relative yield Average, 0.25 mM in medium, max OD650 nm relative to water controls): 158%
activity at 2000 µM [1]: > 105%
activity at 2500 µM (Bordetella pertussis, 168 h, read-out: Relative yield Average, 2.5 mM in medium, max OD650 nm relative to water controls): 212%
activity at 20000 µM [3]: > 105%
activity at 250 µM (Bordetella pertussis, read-out: Relative growth rate Average, 0.25 mM in medium, first generation, relative to water controls): 155%
activity at 2000 µM [4]: > 105%
activity at 2500 µM (Bordetella pertussis, read-out: Relative growth rate Average, 2.5 mM in medium, first generation, relative to water controls): 146%
activity at 20000 µM [5]: > 105%

[I-].[K+] [Potassium iodide]
Relative growth rate Average (0.47 mg/L in medium, first generation, relative to water controls): 94.69%
Relative yield Average (0.47 mg/L in medium, max OD650 nm relative to water controls): 101.89%
Relative growth rate Average (4.7 mg/L in medium, first generation, relative to water controls): 99.91%
Relative yield Average (4.7 mg/L in medium, max OD650 nm relative to water controls): 104.26%

CC(O)CC(=O)[O-].[Na+] (racemic) [Sodium DL-beta-hydroxybutyrate]
Relative growth rate Average (2 mM in medium, first generation, relative to water controls): 100.28%
Relative yield Average (2 mM in medium, max OD650 nm relative to water controls): 96.73%
Relative growth rate Average (20 mM in medium, first generation, relative to water controls): 94.37%
Relative yield Average (20 mM in medium, max OD650 nm relative to water controls): 145.46%

Nc1ncnc2nc[nH]c12 [Adenine]
activity at 0.1 µg/mL [6]: 95 to 105%
activity at 1 µg/mL [7]: 95 to 105%
activity at 0.1 µg/mL [8]: 95 to 105%
activity at 1 µg/mL [9]: 95 to 105%

CC[C@H](C)[C@H](N)C(=O)O [L-Isoleucine]
activity at 2000 µM [1]: < 95%
activity at 20000 µM [3]: < 95%
activity at 2000 µM [4]: < 95%
Effect on growth rate in comparison to a minimally identified medium: negative effect

N[C@@H](CO)C(=O)O [L-Serine]
activity at 2000 µM [1]: < 95%
activity at 20000 µM [3]: < 95%
activity at 2000 µM [4]: 95 to 105%

Cl.NCCCC[C@H](N)C(=O)O [L-Lysine HCl]
activity at 2000 µM [1]: > 105%
activity at 2000 µM [4]: < 95%

N=C(N)NCCC[C@H](N)C(=O)O [L-Arginine]
activity at 2000 µM [1]: > 105%
activity at 2000 µM [4]: > 105%
activity at 20000 µM [5]: > 105%
Effect on growth rate in comparison to a minimally identified medium: positive effect

OB(O)O [Supplement H3BO3, H3BO3]
Relative growth rate Average (2.36 mg/L in medium, first generation, relative to water controls): 93.25%
Relative yield Average (2.36 mg/L in medium, max OD650 nm relative to water controls): 96.86%

O=C(O)CCCC[C@@H]1SC[C@@H]2NC(=O)N[C@@H]21 [Biotin]
activity at 0.02 µg/mL (Bordetella pertussis, read-out: Relative growth rate Average, 0.02 mg/L in medium, first generation, relative to water controls): > 105%
activity at 0.2 µg/mL [2]: 95 to 105%

O.O.O.O.O.O.[Cl-].[Cl-].[Mg+2] [MgCl2•6H2O]
Relative growth rate Average (1 mM in medium, first generation, relative to water controls): 99.38%
Relative yield Average (1 mM in medium, max OD650 nm relative to water controls): 102.26%
Relative growth rate Average (10 mM in medium, first generation, relative to water controls): 106.39%
Relative yield Average (10 mM in medium, max OD650 nm relative to water controls): 222.99%

O=C(O)CC(O)(CC(=O)O)C(=O)O [Citric acid monohydrate]
activity at 2000 µM [1]: < 95%

NCC(=O)O [Glycine]
activity at 2000 µM [1]: 95 to 105%
activity at 2000 µM [4]: > 105%
activity at 20000 µM [5]: > 105%

N[C@@H](Cc1c[nH]c2ccccc12)C(=O)O [L-Tryptophane]
activity at 518 µM (Bordetella pertussis, 168 h, read-out: Relative yield Average, 0.518 mM in medium, max OD650 nm relative to water controls): > 105%
activity at 5180 µM (Bordetella pertussis, 168 h, read-out: Relative yield Average, 5.18 mM in medium, max OD650 nm relative to water controls): 95 to 105%
activity at 518 µM (Bordetella pertussis, read-out: Relative growth rate Average, 0.518 mM in medium, first generation, relative to water controls): 95 to 105%

C[C@H](O)C(=O)[O-].[Na+] [Sodium L-Lactate]
Relative growth rate Average (5 mM in medium, first generation, relative to water controls): 128.73%
Relative yield Average (5 mM in medium, max OD650 nm relative to water controls): 100.70%
Relative growth rate Average (50 mM in medium, first generation, relative to water controls): 103.33%
Relative yield Average (50 mM in medium, max OD650 nm relative to water controls): 192.99%

OC[C@H]1O[C@@](CO)(O[C@H]2O[C@H](CO)[C@@H](O)[C@H](O)[C@H]2O)[C@@H](O)[C@@H]1O [Sucrose]
activity at 6000 µg/mL (Bordetella pertussis, 168 h, read-out: Relative yield Average, 6 g/L in medium, max OD650 nm relative to water controls): > 105%
activity at 6000 µg/mL (Bordetella pertussis, read-out: Relative growth rate Average, 6 g/L in medium, first generation, relative to water controls): 95 to 105%
